# Assay results published in PubChem BioAssay (NCI).
#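 The compound was tested at five concentrations on cells cultured in 96-well plates, with a 48-hour exposure period. At the GI50, growth is halved. Definition used: TGI = concentration required for complete inhibition of growth.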
# Experiments:
# Assay in all cases: NCI-60 cell line screen, 48 h
# [1] = tested on: 786-0 renal
# [2] = tested on: A498 renal
# [3] = tested on: A549 NSCLC
# [4] = tested on: ACHN renal
# [5] = tested on: BT-549 breast
# [6] = tested on: CAKI-1 renal
# [7] = tested on: CCRF-CEM leukemia
# [8] = tested on: DU-145 prostate
# [9] = tested on: EKVX NSCLC
# [10] = tested on: HCC-2998 colon
# [11] = tested on: HCT-15 colon
# [12] = tested on: HL-60(TB) leukemia
# [13] = tested on: HOP-92 NSCLC
# [14] = tested on: HS 578T breast
# [15] = tested on: IGROV1 ovarian
# [16] = tested on: K-562 leukemia
# [17] = tested on: KM12 colon
# [18] = tested on: M14 melanoma
# [19] = tested on: MCF7 breast
# [20] = tested on: MDA-MB-231 breast
# [21] = tested on: MDA-MB-435
# [22] = tested on: MOLT-4 leukemia
# [23] = tested on: NCI-H226 lung
# [24] = tested on: NCI-H23 lung
# [25] = tested on: NCI-H460 lung
# [26] = tested on: NCI-H522 lung
# [27] = tested on: NCI/ADR-RES ovarian
# [28] = tested on: OVCAR-3 ovarian
# [29] = tested on: OVCAR-5 ovarian
# [30] = tested on: OVCAR-8 ovarian
# [31] = tested on: PC-3 prostate
# [32] = tested on: RPMI-8226 leukemia
# [33] = tested on: SF-268 CNS
# [34] = tested on: SF-295 CNS
# [35] = tested on: SF-539 CNS
# [36] = tested on: SK-MEL-2 melanoma
# [37] = tested on: SK-MEL-5 melanoma
# [38] = tested on: SN12C renal
# [39] = tested on: SR leukemia
# [40] = tested on: SW-620 colon
# [41] = tested on: TK-10 renal
# [42] = tested on: UACC-257 melanoma
# [43] = tested on: UACC-62 melanoma
# [44] = tested on: UO-31 renal
# [45] = tested on: COLO 205 colon
# [46] = tested on: HCT-116 colon
# [47] = tested on: HOP-62 NSCLC
# [48] = tested on: HT29 colon
# [49] = tested on: LOX IMVI melanoma
# [50] = tested on: OVCAR-4 ovarian
# [51] = tested on: RXF 393 renal
# [52] = tested on: SK-MEL-28 melanoma
# [53] = tested on: SK-OV-3 ovarian
# [54] = tested on: SNB-19 CNS
# [55] = tested on: SNB-75 CNS
# [56] = tested on: U251 CNS
compound,measurement,setting,value
O=C1C=CC(=O)C(c2cc(-c3ccc(Cl)cc3)nn2-c2ccccc2)=C1,GI50,[1],16.9 µM
same,TGI,[1],36.9 µM
same,GI50,[2],10.7 µM
same,TGI,[2],48.9 µM
same,GI50,[3],21.9 µM
same,TGI,[3],55.7 µM
same,GI50,[4],20.6 µM
same,TGI,[4],41.8 µM
same,GI50,[5],38 µM
same,TGI,[5],99.6 µM
same,GI50,[6],25.8 µM
same,TGI,[6],53.5 µM
same,GI50,[7],11.7 µM
same,TGI,[7],81.8 µM
same,GI50,[8],25.4 µM
same,TGI,[8],91.1 µM
same,GI50,[9],41.6 µM
same,TGI,[9],> 100 µM
same,GI50,[10],18.8 µM
same,TGI,[10],34.4 µM
same,GI50,[11],30.4 µM
same,TGI,[11],> 100 µM
same,GI50,[12],36.2 µM
same,TGI,[12],> 100 µM
same,GI50,[13],23.5 µM
same,TGI,[13],67.2 µM
same,GI50,[14],23.7 µM
same,TGI,[14],86.3 µM
same,GI50,[15],35.8 µM
same,TGI,[15],> 100 µM
same,GI50,[16],31.1 µM
same,TGI,[16],> 100 µM
same,GI50,[17],19 µM
same,TGI,[17],44.3 µM
same,GI50,[18],16.9 µM
same,TGI,[18],35.9 µM
same,GI50,[19],18.8 µM
same,TGI,[19],> 100 µM
same,GI50,[20],12.2 µM
same,TGI,[20],29 µM
same,GI50,[21],20.5 µM
same,TGI,[21],46 µM
same,GI50,[22],37.4 µM
same,TGI,[22],> 100 µM
same,GI50,[23],16.9 µM
same,TGI,[23],59.6 µM
same,GI50,[24],17.5 µM
same,TGI,[24],42.9 µM
same,GI50,[25],32.2 µM
same,TGI,[25],> 100 µM
same,GI50,[26],25.9 µM
same,TGI,[26],71.7 µM
same,GI50,[27],23.4 µM
same,TGI,[27],54.7 µM
same,GI50,[28],24.8 µM
same,TGI,[28],54.6 µM
same,GI50,[29],27.2 µM
same,TGI,[29],72.1 µM
same,GI50,[30],40.5 µM
same,TGI,[30],> 100 µM
same,GI50,[31],17.4 µM
same,TGI,[31],41.6 µM
same,GI50,[32],16.1 µM
same,TGI,[32],41 µM
same,GI50,[33],21 µM
same,TGI,[33],50 µM
same,GI50,[34],29.3 µM
same,TGI,[34],66.3 µM
same,GI50,[35],27.1 µM
same,TGI,[35],51.1 µM
same,GI50,[36],51.3 µM
same,TGI,[36],> 100 µM
same,GI50,[37],18.3 µM
same,TGI,[37],39 µM
same,GI50,[38],23.5 µM
same,TGI,[38],46.9 µM
same,GI50,[39],34.4 µM
same,TGI,[39],> 100 µM
same,GI50,[40],32.9 µM
same,TGI,[40],> 100 µM
same,GI50,[41],19.3 µM
same,TGI,[41],45 µM
same,GI50,[42],29.7 µM
same,TGI,[42],71.3 µM
same,GI50,[43],16.6 µM
same,TGI,[43],30.7 µM
same,GI50,[44],38.1 µM
same,TGI,[44],> 100 µM
O=C1C=C(Nc2ccc([N+](=O)[O-])cc2)c2ccccc2C1=O,GI50,[1],11.6 µM
same,TGI,[1],33.8 µM
same,GI50,[2],1.47 µM
same,TGI,[2],6.75 µM
same,GI50,[3],3.96 µM
same,TGI,[3],16.5 µM
same,GI50,[4],4.3 µM
same,TGI,[4],17.7 µM
same,GI50,[5],3.56 µM
same,TGI,[5],14.5 µM
same,GI50,[6],3.87 µM
same,TGI,[6],19 µM
same,GI50,[7],3.9 µM
same,TGI,[7],26 µM
same,GI50,[45],17.4 µM
same,TGI,[45],34.8 µM
same,GI50,[8],6.94 µM
same,TGI,[8],19.6 µM
same,GI50,[10],9.09 µM
same,TGI,[10],22.4 µM
same,GI50,[46],2.79 µM
same,TGI,[46],12.4 µM
same,GI50,[11],2.42 µM
same,TGI,[11],15.4 µM
same,GI50,[12],2.67 µM
same,TGI,[12],7.19 µM
same,GI50,[47],5.69 µM
same,TGI,[47],19.6 µM
same,GI50,[14],1.78 µM
same,TGI,[14],9.96 µM
same,GI50,[48],18.6 µM
same,TGI,[48],42.3 µM
same,GI50,[15],5.99 µM
same,TGI,[15],20.8 µM
same,GI50,[16],0.569 µM
same,TGI,[16],15.3 µM
same,GI50,[17],3.3 µM
same,TGI,[17],16.4 µM
same,GI50,[49],2.34 µM
same,TGI,[49],7.47 µM
same,GI50,[18],3.49 µM
same,TGI,[18],16.7 µM
same,GI50,[19],2.49 µM
same,TGI,[19],13.9 µM
same,GI50,[20],1.72 µM
same,TGI,[20],13.2 µM
same,GI50,[21],0.392 µM
same,TGI,[21],1.41 µM
same,GI50,[22],3.55 µM
same,TGI,[22],12.7 µM
same,GI50,[23],12.6 µM
same,TGI,[23],28.1 µM
same,GI50,[25],4.45 µM
same,TGI,[25],17.2 µM
same,GI50,[26],2.91 µM
same,TGI,[26],14.4 µM
same,GI50,[27],2.93 µM
same,TGI,[27],29.3 µM
same,GI50,[28],2.07 µM
same,TGI,[28],7.03 µM
same,GI50,[50],2.07 µM
same,TGI,[50],11.2 µM
same,GI50,[29],13.3 µM
same,TGI,[29],27.5 µM
same,GI50,[30],2.74 µM
same,TGI,[30],12.6 µM
same,GI50,[31],3.7 µM
same,TGI,[31],47.1 µM
same,GI50,[32],3.37 µM
same,TGI,[32],22.4 µM
same,GI50,[51],6.6 µM
same,TGI,[51],22.5 µM
same,GI50,[33],5.39 µM
same,TGI,[33],20.6 µM
same,GI50,[34],4.93 µM
same,TGI,[34],18 µM
same,GI50,[35],3.5 µM
same,TGI,[35],14.7 µM
same,GI50,[36],2.12 µM
same,TGI,[36],8.47 µM
same,GI50,[52],3.75 µM
same,TGI,[52],16.6 µM
same,GI50,[37],1.56 µM
same,TGI,[37],3.47 µM
same,GI50,[53],11.6 µM
same,TGI,[53],27.1 µM
same,GI50,[38],3.92 µM
same,TGI,[38],15.1 µM
same,GI50,[54],4.71 µM
same,TGI,[54],18.1 µM
same,GI50,[55],1.19 µM
same,TGI,[55],9.91 µM
same,GI50,[39],2.55 µM
same,TGI,[39],> 100 µM
same,GI50,[40],2.47 µM
same,TGI,[40],15.5 µM
same,GI50,[56],3.07 µM
same,TGI,[56],12.9 µM
same,GI50,[42],3.14 µM
same,TGI,[42],13.8 µM
same,GI50,[43],1.9 µM
same,TGI,[43],5.88 µM
same,GI50,[44],1.85 µM
same,TGI,[44],12.5 µM
